Consider one compound from patent publication US20120108665A1, “METHODS AND COMPOSITIONS FOR TREATING OPHTHALMIC CONDITIONS” (REVISION THERAPEUTICS, INC., priority 2009, published 2012).

Test [1] deals with serum RBP-retinol. The test is described as follows: Serum retinol monitoring in Ins2Akita/+ diabetic mice fed HPR-supplemented diet. It counts as in vivo, mouse. Particulars: diet containing HPR 0.1% w/w ad libitum, retinol at day 30 (FIG. 1A). How it is done:
(§1) Ins2Akita littermates (aged 2-5 months) were divided into two groups. One group received a specialized rodent diet containing HPR (0.1%, w/w). The second group received a rodent chow which was not supplemented with HPR. Mice ingested these diets ad libitum for 3 months (except where indicated). Serum retinol and glucose levels were regularly monitored throughout the treatment period. At the end of the treatment period, the mice were euthanized and eyecups were prepared for biochemical and immunohistochemical analyses.
(§2) Serum levels of retinol at day 30 (panel A) and glucose at 7-day intervals (panel B) are shown. The dashed line in panel B indicates mean glucose levels in wild-type mice.

Test [2] has as its system Ins2Akita/+ mice. The test is described as follows: Serum glucose (hyperglycemia) monitoring in Ins2Akita/+ diabetic mice fed HPR-supplemented diet. It counts as in vivo, mouse. The following applies: diet containing HPR 0.1% w/w ad libitum, glucose at 7-day intervals (FIG. 1B). How it is done:
as §1, §2

Test [3] relates to ganglion cell layer. The test is described as follows: Retinal histology (toludine blue staining) of ganglion cell layer in Ins2Akita/+ mice. It counts as in vivo, mouse. The following applies: HPR diet 0.1% w/w. How it is done: as §1
(§3) Panels A and D are from Ins2Akita/+ mice fed the control diet. Panels B and E are from Ins2/Akita/+ mice fed the HPR-supplemented diet. Panels C and E are from age-matched wild-type mice. Arrows in panels A and D show disruption of the GCL and RAGE immunoreactivity.

For test [4], the system named is RAGE. As to the kind of experiment: RAGE immunoreactivity in retina tissue sections of Ins2Akita/+ mice. The following applies: HPR diet 0.1% w/w, 3 months (FIG. 2). In kind it is in vivo, mouse. How it is done:
as §1, §3

The test system of test [5] is advanced glycation end products (AGEs). The test is described as follows: AGE immunoreactivity in retina tissue sections of Ins2Akita/+ mice. It counts as in vivo, mouse. The following applies: HPR diet 0.1% w/w, 3 months (FIG. 3). How it is done: as §1
For test [6], the system named is phosphorylated p38 MAPK. As to the kind of experiment: Phosphorylated p38 MAPK immunoreactivity in RPE of Ins2Akita/+ mice. In kind it is in vivo, mouse. The following applies: HPR diet 0.1% w/w, 3 months (FIG. 4). How it is done:
as §1
Tissue sections from these mice were probed for phosphorylated p38 MAPK, a mediator of apoptotic cell death.

The subject of test [7] is VEGF. As to the kind of experiment: VEGF expression in retina of Ins2Akita/+ mice. It counts as in vivo, mouse. The following applies: HPR diet 0.1% w/w, 3 months (FIG. 5). How it is done:
as §1

Test [8] relates to primary human retinal microvascular endothelial cells. The test is described as follows: In vitro capillary tube formation assay. In kind it is cell-based. Particulars: HPR 10 mM; VEGF 10 ng/ml pretreatment; cells on Cultrex BME in 0.1% FBS (FIG. 6). An excerpt:
(§4) We set out to directly test the angiogenic properties of HPR in three different models of ocular angiogenesis. In the first, we induced angiogenesis in vitro by exposing primary human retinal microvascular endothelial cells to growth factors in the tube formation assay. Second, we utilized slow release pellets containing growth factor to induce angiogenesis in the corneal micropocket assay. Next, we looked at the effect of HPR treatment on angiogenesis in a transgenic animal model of early-onset retinal neovascularization, the very-low-density lipoprotein receptor (VLDLR) knockout mouse (vldlr−/−).
In parallel experiments, cells were pretreated with VEGF (10 ng/ml) and HPR ([…]) respectively. The cells were then plated in 0.1% FBS or 0.1% FBS-[…] HPR.

Test [9] relates to wild type Balb/c mice. As to the kind of experiment: In vivo corneal micropocket assay (bFGF pellets). More on the design: species or system mouse. The following applies: 0.1% (w/w) HPR chow 8 weeks, bFGF ~80 ng/pellet, assessed 5 days later, FITC-dextran (FIG. 7).
Text: as §4
At the end of this period, standardized slow release pellets containing bFGF (˜80 ng/pellet) were surgically inserted into the normally avascular corneas of the mice in the study. Blank pellets were implanted in the left eye. Vessel formation was assessed 5 days later when the mice were perfused with FITC-dextran and the eyes were enucleated and photographed. FIG. 7: Bright field (A-F) and fluorescence (G-L) images showing vessel growth (arrows) and the approximate location of the pellets (ovals).

The subject of test [10] is VLDLR-/- knockout mice. The test is described as follows: Retinal vascular leakage in VLDLR-/- knockout mice (retinal neovascularization model). The following applies: 0.1% HPR (w/w) chow 8 weeks, retinal flat mounts after FITC-dextran perfusion (FIG. 8). In kind it is in vivo, mouse.
Text: as §4
VLDLR^−/− mice were fed either control or 0.1% HPR (w/w)-supplemented chow ad libitum for 8 weeks. The extent of retinal leakage was then assessed in retinal flat mounts after FITC-dextran perfusion.

On to `CC1=C(/C=C/C(C)=C/C=C/C(C)=C/C(=O)Nc2ccc(O)cc2)C(C)(C)CCC1` [HPR, N-(4-hydroxyphenyl)retinamide], for which, in test [1], the “serum RBP-retinol” value is on record as “significantly reduces”. The “effect on hyperglycemia (serum glucose)” value in test [2] is recorded as “has no effect”. Moreover, the “preservation of ganglion cell layer and inner nuclear layer” value in test [3] (3 months (FIG. 5)) is “remarkable preservation”. Moreover, the “integrity of the ganglion cell layer (GCL)” value in test [3] (3 months, toludine blue staining (FIG. 2)) is “well preserved”. Moreover, the “RAGE immunoreactivity in the GCL” value in test [4] is on record as “very little”. In [5], the “AGE immunoreactivity in the retina” value is recorded as “significantly reduced”. Also, the “p38 MAPK immunoreactivity in the RPE” value in [6] is listed as “barely detectable”. In addition, in [7], the “VEGF expression in all retina sublayers” value is reported as “dramatically reduced”. The tube formation result in test [8] is reported as “reduced”. Also, the “bFGF-induced corneal vessel growth (angiogenic response)” value in test [9] is “striking reduction”. Also, the “extent of retinal vascular leakage” value in test [10] is listed as “significant reduction”.
